# Reference: the kinase profiling compilation of Christmann-Franck et al. (2016)
# How the values were obtained:
# Assay in all cases: radiometric filter-binding kinase assay
# RPS6KA3 KD1 KD2 (human) = RPS6KA3 KD1 KD2 (human) (UniProt P51812)
# MAPK12 (human) = MAPK12 (human) (UniProt P53778)
# MYLK (human) = MYLK (human) (UniProt Q15746)
# CSNK1D (human) = CSNK1D (human) (UniProt P48730)
# CDK2 CCNA2 (human) = CDK2 CCNA2 (human) (UniProt P20248+P24941)
# MELK (human) = MELK (human) (UniProt Q14680)
# INSR (human) = INSR (human) (UniProt P06213)
# TBK1 (human) = TBK1 (human) (UniProt Q9UHD2)
# [1] = system: SGK1 (human), O00141 [S422D]
# FLT1 (human) = FLT1 (human) (UniProt P17948)
# PIM3 (human) = PIM3 (human) (UniProt Q86V86)
# [2] = system: RPS6KB1 (human), P23443 [T412E]
# BRSK2 (human) = BRSK2 (human) (UniProt Q8IWQ3)
# CSK (human) = CSK (human) (UniProt P41240)
# FGFR1 (human) = FGFR1 (human) (UniProt P11362)
# MAPK8 (human) = MAPK8 (human) (UniProt P45983)
# PLK1 (human) = PLK1 (human) (UniProt P53350)
# PIM1 (human) = PIM1 (human) (UniProt P11309)
# SYK (human) = SYK (human) (UniProt P43405)
# INSRR (human) = INSRR (human) (UniProt P14616)
# Chain of CSK (human) (P41240 whole entry, looked up): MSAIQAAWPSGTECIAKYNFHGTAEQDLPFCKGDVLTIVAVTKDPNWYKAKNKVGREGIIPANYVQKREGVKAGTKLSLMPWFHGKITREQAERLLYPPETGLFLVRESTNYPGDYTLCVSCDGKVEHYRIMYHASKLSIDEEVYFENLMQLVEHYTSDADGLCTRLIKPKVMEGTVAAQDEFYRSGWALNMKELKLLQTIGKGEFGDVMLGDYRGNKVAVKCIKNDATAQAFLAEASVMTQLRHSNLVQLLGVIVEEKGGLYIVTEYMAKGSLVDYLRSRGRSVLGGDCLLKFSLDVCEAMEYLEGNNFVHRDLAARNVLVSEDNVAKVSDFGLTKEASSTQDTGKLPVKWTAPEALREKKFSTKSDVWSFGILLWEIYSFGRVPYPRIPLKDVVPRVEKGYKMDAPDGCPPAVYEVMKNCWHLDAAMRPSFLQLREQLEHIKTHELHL
# Chain of RPS6KB1 (human), P23443 [T412E] (P23443 whole entry T412E, looked up): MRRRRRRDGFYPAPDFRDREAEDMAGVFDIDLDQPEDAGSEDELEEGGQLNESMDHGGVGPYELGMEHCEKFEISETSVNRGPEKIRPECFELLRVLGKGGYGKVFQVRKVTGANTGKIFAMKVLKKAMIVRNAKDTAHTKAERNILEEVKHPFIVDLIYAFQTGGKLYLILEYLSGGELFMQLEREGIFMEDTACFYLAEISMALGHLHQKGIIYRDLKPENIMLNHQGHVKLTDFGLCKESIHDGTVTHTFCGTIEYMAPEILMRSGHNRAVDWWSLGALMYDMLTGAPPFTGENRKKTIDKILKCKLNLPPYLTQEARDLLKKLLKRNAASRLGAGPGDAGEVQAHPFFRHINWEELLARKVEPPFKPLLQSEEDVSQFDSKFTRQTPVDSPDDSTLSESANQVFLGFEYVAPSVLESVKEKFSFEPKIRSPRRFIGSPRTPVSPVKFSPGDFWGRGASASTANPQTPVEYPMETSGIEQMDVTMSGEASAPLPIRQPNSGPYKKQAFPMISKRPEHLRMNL
# Chain of SGK1 (human), O00141 [S422D] (O00141 whole entry S422D, looked up): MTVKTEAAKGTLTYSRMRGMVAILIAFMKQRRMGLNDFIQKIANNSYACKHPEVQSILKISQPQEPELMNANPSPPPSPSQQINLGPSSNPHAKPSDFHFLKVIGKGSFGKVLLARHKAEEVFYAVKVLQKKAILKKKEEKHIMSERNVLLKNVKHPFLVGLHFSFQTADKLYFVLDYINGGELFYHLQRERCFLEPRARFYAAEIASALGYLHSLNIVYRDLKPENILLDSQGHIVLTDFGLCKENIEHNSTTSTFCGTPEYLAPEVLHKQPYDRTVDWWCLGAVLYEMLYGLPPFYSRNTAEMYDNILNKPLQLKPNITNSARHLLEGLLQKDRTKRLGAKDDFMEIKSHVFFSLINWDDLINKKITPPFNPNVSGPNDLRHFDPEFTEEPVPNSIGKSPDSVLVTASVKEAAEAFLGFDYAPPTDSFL
# Chain of TBK1 (human) (Q9UHD2 whole entry, looked up): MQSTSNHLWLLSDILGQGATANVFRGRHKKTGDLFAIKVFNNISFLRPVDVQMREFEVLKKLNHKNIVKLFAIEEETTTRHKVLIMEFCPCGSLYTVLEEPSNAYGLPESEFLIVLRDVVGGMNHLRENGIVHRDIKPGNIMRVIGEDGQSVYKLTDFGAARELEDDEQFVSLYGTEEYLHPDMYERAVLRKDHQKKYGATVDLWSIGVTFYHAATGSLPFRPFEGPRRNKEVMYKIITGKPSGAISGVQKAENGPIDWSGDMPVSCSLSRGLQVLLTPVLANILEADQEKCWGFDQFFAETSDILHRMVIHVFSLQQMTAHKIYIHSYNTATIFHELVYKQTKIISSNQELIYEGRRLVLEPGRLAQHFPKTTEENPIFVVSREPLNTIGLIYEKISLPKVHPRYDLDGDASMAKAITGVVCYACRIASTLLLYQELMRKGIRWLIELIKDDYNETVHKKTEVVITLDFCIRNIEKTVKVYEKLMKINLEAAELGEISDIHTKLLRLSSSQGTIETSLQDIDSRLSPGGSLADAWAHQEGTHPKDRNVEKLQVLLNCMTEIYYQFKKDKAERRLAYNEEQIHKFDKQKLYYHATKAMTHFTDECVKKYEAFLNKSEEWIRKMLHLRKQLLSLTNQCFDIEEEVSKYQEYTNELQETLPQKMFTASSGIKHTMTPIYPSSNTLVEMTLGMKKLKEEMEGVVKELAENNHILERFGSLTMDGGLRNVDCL
# Chain of PIM1 (human) (P11309 whole entry, looked up): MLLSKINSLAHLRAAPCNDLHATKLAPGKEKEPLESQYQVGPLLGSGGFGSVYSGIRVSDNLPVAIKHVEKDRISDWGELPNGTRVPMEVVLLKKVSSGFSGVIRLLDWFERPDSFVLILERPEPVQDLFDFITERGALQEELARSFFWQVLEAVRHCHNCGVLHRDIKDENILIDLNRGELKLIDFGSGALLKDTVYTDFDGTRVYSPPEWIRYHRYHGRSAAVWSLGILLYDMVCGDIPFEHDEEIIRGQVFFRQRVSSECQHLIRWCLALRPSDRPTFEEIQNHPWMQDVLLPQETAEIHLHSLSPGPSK
# Chain of FLT1 (human) (P17948 whole entry, looked up): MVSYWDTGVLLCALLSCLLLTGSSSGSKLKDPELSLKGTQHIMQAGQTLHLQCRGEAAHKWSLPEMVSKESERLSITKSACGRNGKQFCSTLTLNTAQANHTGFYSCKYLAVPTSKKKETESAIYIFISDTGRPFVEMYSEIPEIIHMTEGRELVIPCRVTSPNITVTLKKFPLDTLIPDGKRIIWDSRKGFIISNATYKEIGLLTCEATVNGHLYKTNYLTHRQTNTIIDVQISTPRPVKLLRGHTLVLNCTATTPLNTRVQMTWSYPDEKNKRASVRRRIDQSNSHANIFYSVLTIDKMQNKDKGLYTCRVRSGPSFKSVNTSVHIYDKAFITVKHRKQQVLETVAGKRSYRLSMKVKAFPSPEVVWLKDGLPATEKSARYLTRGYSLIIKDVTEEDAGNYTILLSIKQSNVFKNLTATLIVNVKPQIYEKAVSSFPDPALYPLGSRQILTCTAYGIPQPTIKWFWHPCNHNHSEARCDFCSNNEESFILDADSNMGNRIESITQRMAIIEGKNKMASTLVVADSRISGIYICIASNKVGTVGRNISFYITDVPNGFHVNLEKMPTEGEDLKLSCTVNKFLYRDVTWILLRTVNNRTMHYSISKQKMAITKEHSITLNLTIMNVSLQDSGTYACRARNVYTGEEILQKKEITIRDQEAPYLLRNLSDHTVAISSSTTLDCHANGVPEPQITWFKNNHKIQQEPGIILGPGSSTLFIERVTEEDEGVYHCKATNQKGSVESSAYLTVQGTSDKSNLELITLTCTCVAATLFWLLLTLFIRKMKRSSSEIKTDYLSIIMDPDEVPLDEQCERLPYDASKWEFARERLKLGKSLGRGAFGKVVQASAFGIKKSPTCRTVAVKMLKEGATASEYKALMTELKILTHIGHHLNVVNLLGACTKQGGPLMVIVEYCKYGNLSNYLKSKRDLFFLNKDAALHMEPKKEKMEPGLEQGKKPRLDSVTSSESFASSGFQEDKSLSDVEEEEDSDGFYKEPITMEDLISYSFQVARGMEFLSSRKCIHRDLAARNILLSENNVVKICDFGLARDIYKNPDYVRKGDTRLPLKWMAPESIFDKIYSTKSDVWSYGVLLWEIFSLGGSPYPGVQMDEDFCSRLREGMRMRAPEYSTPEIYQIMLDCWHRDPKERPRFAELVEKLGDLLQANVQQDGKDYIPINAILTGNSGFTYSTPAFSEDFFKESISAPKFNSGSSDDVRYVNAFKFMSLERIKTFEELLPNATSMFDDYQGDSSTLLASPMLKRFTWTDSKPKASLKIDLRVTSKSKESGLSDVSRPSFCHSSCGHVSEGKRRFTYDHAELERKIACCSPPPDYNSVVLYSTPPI
# Chain of CSNK1D (human) (P48730 whole entry, looked up): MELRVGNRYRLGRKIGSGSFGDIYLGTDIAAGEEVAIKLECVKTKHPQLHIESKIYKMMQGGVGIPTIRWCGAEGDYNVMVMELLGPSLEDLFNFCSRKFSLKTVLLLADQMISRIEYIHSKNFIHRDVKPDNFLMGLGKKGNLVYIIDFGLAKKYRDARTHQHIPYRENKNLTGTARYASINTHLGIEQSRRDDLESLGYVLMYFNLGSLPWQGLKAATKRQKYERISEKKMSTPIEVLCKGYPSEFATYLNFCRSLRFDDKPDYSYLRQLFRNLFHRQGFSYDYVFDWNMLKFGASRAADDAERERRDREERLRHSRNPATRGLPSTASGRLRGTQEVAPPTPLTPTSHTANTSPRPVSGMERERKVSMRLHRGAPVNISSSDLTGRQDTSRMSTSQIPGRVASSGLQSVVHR
# Chain of PLK1 (human) (P53350 whole entry, looked up): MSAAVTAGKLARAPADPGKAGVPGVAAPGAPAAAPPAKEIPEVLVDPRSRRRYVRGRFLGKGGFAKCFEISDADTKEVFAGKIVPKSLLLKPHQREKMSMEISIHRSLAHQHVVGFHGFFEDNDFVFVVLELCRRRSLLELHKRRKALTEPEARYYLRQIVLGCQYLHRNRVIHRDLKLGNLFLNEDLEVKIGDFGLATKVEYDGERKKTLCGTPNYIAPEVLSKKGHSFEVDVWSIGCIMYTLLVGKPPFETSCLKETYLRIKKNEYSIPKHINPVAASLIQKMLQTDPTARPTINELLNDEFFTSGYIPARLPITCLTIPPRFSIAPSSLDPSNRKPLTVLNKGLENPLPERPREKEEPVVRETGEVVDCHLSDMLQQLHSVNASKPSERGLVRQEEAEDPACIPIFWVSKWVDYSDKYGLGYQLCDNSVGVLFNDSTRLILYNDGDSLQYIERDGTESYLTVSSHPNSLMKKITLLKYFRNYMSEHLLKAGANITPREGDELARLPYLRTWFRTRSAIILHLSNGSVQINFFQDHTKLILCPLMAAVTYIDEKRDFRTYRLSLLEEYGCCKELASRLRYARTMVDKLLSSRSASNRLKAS
Compound,residual activity (RPS6KA3 KD1 KD2 (human); compound 1.0 µM) [%],residual activity (RPS6KA3 KD1 KD2 (human); compound 10.0 µM) [%],residual activity (MAPK12 (human); compound 1.0 µM) [%],residual activity (MAPK12 (human); compound 10.0 µM) [%],residual activity (MYLK (human); compound 1.0 µM) [%],residual activity (MYLK (human); compound 10.0 µM) [%],residual activity (CSNK1D (human); compound 1.0 µM) [%],residual activity (CSNK1D (human); compound 10.0 µM) [%],residual activity (CDK2 CCNA2 (human); compound 1.0 µM) [%],residual activity (CDK2 CCNA2 (human); compound 10.0 µM) [%],residual activity (MELK (human); compound 10.0 µM) [%],residual activity (INSR (human); compound 1.0 µM) [%],residual activity (INSR (human); compound 10.0 µM) [%],residual activity (TBK1 (human); compound 1.0 µM) [%],residual activity (TBK1 (human); compound 10.0 µM) [%],residual activity ([1]; compound 1.0 µM) [%],residual activity ([1]; compound 10.0 µM) [%],residual activity (FLT1 (human); compound 1.0 µM) [%],residual activity (PIM3 (human); compound 1.0 µM) [%],residual activity (PIM3 (human); compound 10.0 µM) [%],further results
O=C1Nc2nc(-c3c(O)cccc3OCC3CC3)cc(C3CCCNC3)c2CO1 (stereo not drawn),80,53,85,66,76,37,81,43,58,14,58,94,96,91,84,55,13,112,44,7,residual activity (FLT1 (human); compound 10.0 µM): 116%; residual activity ([2]; compound 1.0 µM): 102%; residual activity ([2]; compound 10.0 µM): 68%; residual activity (BRSK2 (human); compound 1.0 µM): 89%; residual activity (BRSK2 (human); compound 10.0 µM): 45%; residual activity (CSK (human); compound 1.0 µM): 91%; residual activity (CSK (human); compound 10.0 µM): 92%; residual activity (FGFR1 (human); compound 1.0 µM): 96%; residual activity (FGFR1 (human); compound 10.0 µM): 79%; residual activity (MAPK8 (human); compound 1.0 µM): 76%; residual activity (MAPK8 (human); compound 10.0 µM): 61%; residual activity (PLK1 (human); compound 1.0 µM): 83%; residual activity (PLK1 (human); compound 10.0 µM): 87%; residual activity (PIM1 (human); compound 1.0 µM): 76%; residual activity (PIM1 (human); compound 10.0 µM): 15%; residual activity (SYK (human); compound 1.0 µM): 106%; residual activity (SYK (human); compound 10.0 µM): 91%; residual activity (INSRR (human); compound 1.0 µM): 78%; residual activity (INSRR (human); compound 10.0 µM): 45%
O=C1NC(=S)N[C@@H]1Cc1c[nH]c2ccccc12,78,100,103,96,70,94,105,115,85,94,100,96,103,106,94,87,96,89,90,95,residual activity (MELK (human); compound 1.0 µM): 84%; residual activity ([2]; compound 1.0 µM): 88%; residual activity ([2]; compound 10.0 µM): 100%; residual activity (BRSK2 (human); compound 1.0 µM): 79%; residual activity (BRSK2 (human); compound 10.0 µM): 94%; residual activity (CSK (human); compound 1.0 µM): 101%; residual activity (CSK (human); compound 10.0 µM): 104%; residual activity (FGFR1 (human); compound 1.0 µM): 83%; residual activity (FGFR1 (human); compound 10.0 µM): 80%; residual activity (MAPK8 (human); compound 1.0 µM): 83%; residual activity (MAPK8 (human); compound 10.0 µM): 107%; residual activity (PLK1 (human); compound 1.0 µM): 97%; residual activity (PLK1 (human); compound 10.0 µM): 93%; residual activity (PIM1 (human); compound 1.0 µM): 89%; residual activity (PIM1 (human); compound 10.0 µM): 93%; residual activity (SYK (human); compound 1.0 µM): 92%; residual activity (SYK (human); compound 10.0 µM): 116%; residual activity (INSRR (human); compound 1.0 µM): 83%; residual activity (INSRR (human); compound 10.0 µM): 90%
